Measured values as given in patent EP0206783A2, “Expression and secretion of polypeptides from saccharomyces cerevisiae” (The Salk Institute Biotechnology Industrial Associates, Inc., priority 1985, dated 1986).
Ends that are not written are not given here.

Tested on: pituitary cells
Assay: rat pituitary cell bioassay for GRF (release of growth hormone)
Assay type: cell-based
Conditions: plated rat pituitary cells, dexamethasone added, GH measured by anti-rat GH RIA; yeast peptide purified, from pTRP213-transformed GG100-14D
Experimental: A rat pituitary cell bioassay for GRF was conducted using the purified GRF analog secreted from pTRP213-transformed S. cerevisiae cells (GG100-14D). The ability of the GRF analog to cause the release of growth hormone from the pituitary cells was measured and compared to the ability of a synthetic hGRF(1-40)-OH standard to do the same. Such an analysis allowed the biological activity of yeast-produced GRF analog to be evaluated.
Typically, pituitaries of 20 rats were removed and treated with collagenase to obtain a suspension of approximately 8×10^7 cells which were then plated in the appropriate medium. The cells, attached to tissue culture dishes, were treated with yeast-derived peptide or synthetic standard within three to five days after plating. Dexamethasone was added to enhance the effect of GRF on GH secretion; cells treated in this manner secrete 8-9 times more GH than do control cells treated with GRF but not dexamethasore. Growth hormone secretion levels were measured using an anti-rat GH RIA which had been standardized with respect to the synthetic standard.
The percent of maximum rat growth hormone secretion upon treatment of the plated pituitary cells with purified GRF analog secreted from yeast and treatment with synthetic hGRF(1-40)-OH was determined. The ED50 value for secretion with both treatments was about. 32 pM.

hGRF(1-40)-OH (YADAIFTNSYRKVLGQLSARKLLQDIMSRQQGESNQERGA-OH; UniProt P01286 32-71, looked up, fragment) [synthetic hGRF(1-40)-OH, synthetic polypeptide standard, hGRF(1-40)-OH (with Met at position 27)]
ED50 value for secretion (percent of maximum rat growth hormone secretion): ~0.032 nM
